Reference: patent EP0923551B1, “4-AMINOETHOXY INDOLONE DERIVATIVES” (AMERICAN HOME PRODUCTS CORPORATION, priority 1996, dated 1998)

Target: dopamine autoreceptor (Rattus norvegicus, UniProt P61169)
Test: Affinity for the dopamine autoreceptor, 3H-quinpirole binding in homogenized rat striatal brain tissue
Settings: for IC50: 3H-quinpirole, homogenized rat striatal brain tissue, read-out: IC50 (nM) D2 Quin.; for Ratio: ratio of IC50 D2 Spiper to IC50 D2 Quin. (LowAg/HighAg, predicts intrinsic activity)

Chain of dopamine autoreceptor (P61169 whole entry): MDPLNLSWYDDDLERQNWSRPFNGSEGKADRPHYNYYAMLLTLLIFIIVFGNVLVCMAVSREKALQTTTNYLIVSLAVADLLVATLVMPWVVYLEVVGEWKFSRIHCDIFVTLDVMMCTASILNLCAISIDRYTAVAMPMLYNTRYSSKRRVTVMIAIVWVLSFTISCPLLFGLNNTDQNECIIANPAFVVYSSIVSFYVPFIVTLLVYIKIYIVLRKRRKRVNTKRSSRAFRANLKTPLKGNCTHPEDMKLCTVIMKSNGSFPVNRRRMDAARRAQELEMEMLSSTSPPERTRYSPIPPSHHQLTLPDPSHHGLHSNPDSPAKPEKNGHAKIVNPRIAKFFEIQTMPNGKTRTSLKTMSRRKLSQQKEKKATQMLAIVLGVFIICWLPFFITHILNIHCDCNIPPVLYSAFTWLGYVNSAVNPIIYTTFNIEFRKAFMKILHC

IC50 | Ratio | Compound
0.41 nM | 354 | O=C1Cc2c(cccc2OCCNCc2ccccc2)N1 [Example 1, 4-(2-Benzylaminoethoxy)-1,3-dihydro-indol-2-one]
2.54 nM | 69 | O=C1Cc2c(OCCNCc3ccc(F)cc3)ccc(Cl)c2N1 [Example 4]
0.45 nM | 55 | O=C1Cc2c(cccc2OCCNCCCCc2ccccc2)N1 [Example 13]
3.68 nM | 63 | CN(CCOc1ccc(Cl)c2c1CC(=O)N2)Cc1ccccc1 [Example 7, 4-[2-(N-Benzyl-N-methyl-amino)-ethoxy]-7-chloro-1,3-dihydro-indol-2-one]
2.81 nM | 19 | O=C1Cc2c(OCCNCc3ccc(Cl)cc3)ccc(Cl)c2N1 [Example 5]
1.27 nM | – | O=C1Cc2c(OCCNCc3ccc4ccccc4c3)ccc(F)c2N1 [Example 21, 7-Fluoro-4-{2-[(napthalen-2-ylmethyl)-aminol]-ethoxy}-1,3-dihydro-indol-2-one]
1.89 nM | 76 | CCCCNCCOc1ccc(Cl)c2c1CC(=O)N2 [Example 8, 4-(2-Butylamino-ethoxy)-7-chloro-1,3-dihydro-indol-2-one]
1.52 nM | 424 | CN(CCOc1cccc2c1CC(=O)N2)Cc1ccccc1 [Example 25, 4-[2-(Benzyl-methyl-amino)-ethoxy]-1,3-dihydro-indol-2-one]
0.82 nM | 44 | O=C1Cc2c(OCCNCc3ccccc3)ccc(Cl)c2N1 [Example 14, 4-(2-Benzylamino-ethoxy)-7-chloro-1,3-dihydro-indol-2-one]
3.57 nM | – | O=C1Cc2c(OCCN3Cc4ccccc4C3)ccc(F)c2N1 [Example 19, 4-[2-(1,3-Dihydro-isoindol-2-yl)-ethoxy]-7-fluoro-1,3-dihydro-indol-2-one]
13.9 nM | 246 | NCCOc1cccc2c1CC(=O)N2 [Example 3, 4-(2-Amino-ethoxy)-1,3-dihydro-indol-2-one]
41.1 nM | – | O=C1Cc2c(OCCNCc3ccc(-c4ccccc4)cc3)ccc(Cl)c2N1 [Example 11, 4-{2-[(Biphenyl-4-ylmethyl)-amino]-ethoxy}-7-chloro-1,3-dihydro-indol-2-one]
4.31 nM | 213 | CNCCOc1cccc2c1CC(=O)N2 [Example 2, 4-(2-Methylamino-ethoxy)-1,3-dihydro-indol-2-one]
1.58 nM | 63 | O=C1Cc2c(OCCNCC3CCCCC3)ccc(F)c2N1 [Example 16, 4-[2-(Cyclohexylmethyl-amino)-ethoxy)-7-fluoro-1,3-dihydro-indol-2-one]
6.22 nM | 57 | CN(CCCC(=O)c1ccc(F)cc1)CCOc1cccc2c1CC(=O)N2 [Example 27, 4-(2-{[4-(4-Fluoro-phenyl)-4-oxo-butyl]-methyl-amino}-ethoxy)-1,3-dihydro-indol-2-one]
0.55 nM | – | O=C1Cc2c(OCCN3Cc4ccccc4C3)ccc(Cl)c2N1 [Example 10, 7-Chloro-4-[2-(1,3-dihydro-isoindol-2-yl)-ethoxy]-1,3-dihydro-indol-2-one]
1.84 nM | – | O=C1Cc2c(OCCN3CCc4ccccc4C3)ccc(F)c2N1 [Example 22, 4-[2-(3,4-Dihydro-1H-isoquinolin-2-yl)-ethoxy]-7-fluoro-1,3-dihydro-indol-2-one]
31.2 nM | 619 | Cc1cccc(CN(CCOc2cccc3c2CC(=O)N3)Cc2cccc(C)c2)c1 [Example 26, 4-{2-[Bis-(3-methyl-benzyl)-amino]-ethoxy}-1,3-dihydro-indol-2-one]
0.3 nM | – | O=C1Cc2c(OCCNCCCc3c[nH]c4ccccc34)ccc(F)c2N1 [Example 18, 4-{2-[3-(1H-Indol-yl)-propylamino]-ethoxy}-7-fluoro-1,3-dihydro-indol-2-one]
11.1 nM | – | O=C1Cc2c(OCCNCc3ccc(-c4ccccc4)cc3)ccc(F)c2N1 [Example 20, 4-{2-[(Biphenyl-4-ylmethyl)-amino]-ethoxy}-7-fluoro-1,3-dihydro-indol-2-one]
1.1 nM | 52 | Cc1ccc(CNCCOc2ccc(Cl)c3c2CC(=O)N3)cc1 [Example 6]
1.31 nM | 62 | O=C1Cc2c(OCCN3CCc4ccccc4C3)ccc(Cl)c2N1 [Example 9, 7-Chloro-4-[2-(3,4-dihydro-1H-isoquinolin-2-yl)-ethoxy]-1,3-dihydro-indol-2-one]
0.91 nM | 76 | O=C1Cc2c(OCCNCc3ccccc3)ccc(F)c2N1 [Example 15, 4-(2-Benzylamino-ethoxy)-7-fluoro-1,3-dihydro-indol-2-one]
